Test results reported in PubChem BioAssay AID200 (DTP/NCI, 2004).
Values joined by “and” are separate entries in the source; they are usually repeats but may differ in a detail not shown here. Identical values can stand only once. Toxic doses and inconclusive results are not listed.

Tested on: B6C3F1 mice, B16 melanoma ip, median survival T/C
Assay: NCI In Vivo Anticancer Drug Screen. Data for tumor model B16 Melanoma (intraperitoneal) in B6C3F1 mice
Conditions: endpoint: median survival time, higher = longer survival
How it was run: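 Tumor-bearing mice received test compound; a separate group got vehicle only. Survival was then compared, with results reported as treated over control.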

[1] = dose: 6.25 mg/kg/injection, schedule: Q01DX009 (ip), vehicle: Klucel (hydroxypropylcellulose) (HPC)
[2] = dose: 12.5 mg/kg/injection, schedule: Q01DX009 (ip), vehicle: saline with Tween-80
[3] = dose: 25.0 mg/kg/injection, schedule: Q01DX009 (ip), vehicle: saline with Tween-80
[4] = dose: 50.0 mg/kg/injection, schedule: Q01DX009 (ip), vehicle: saline with Tween-80
[5] = dose: 400.0 mg/kg/injection, schedule: Q01DX009 (ip), vehicle: saline
[6] = dose: 100.0 mg/kg/injection, schedule: Q01DX009 (ip), vehicle: saline with Tween-80
[7] = dose: 6.25 mg/kg/injection, schedule: Q01DX009 (ip), vehicle: saline with Tween-80
[8] = dose: 25.0 mg/kg/injection, schedule: Q01DX009 (ip), vehicle: Klucel (hydroxypropylcellulose) (HPC)
[9] = dose: 50.0 mg/kg/injection, schedule: Q01DX009 (ip), vehicle: Klucel (hydroxypropylcellulose) (HPC)
[10] = dose: 100.0 mg/kg/injection, schedule: Q01DX009 (ip), vehicle: Klucel (hydroxypropylcellulose) (HPC)
[11] = dose: 200.0 mg/kg/injection, schedule: Q01DX009 (ip), vehicle: Klucel (hydroxypropylcellulose) (HPC)
[12] = dose: 12.5 mg/kg/injection, schedule: Q01DX009 (ip), vehicle: saline
[13] = dose: 25.0 mg/kg/injection, schedule: Q01DX009 (ip), vehicle: saline
[14] = dose: 50.0 mg/kg/injection, schedule: Q01DX009 (ip), vehicle: saline

For COc1cccc2c1C(=O)c1c(O)c3c(c(O)c1C2=O)C[C@@](O)(C(O)CO)C[C@@H]3OC1CC(N(Cc2ccccc2)Cc2ccccc2)C(O)C(C)O1 (some centres not stated), the T/C (dose: 6.25 mg/kg/injection, schedule: Q01DX001 (ip), vehicle: water) was 111 % of control, the T/C (dose: 50.0 mg/kg/injection, schedule: Q01DX001 (ip), vehicle: water) was 166 % of control and the T/C (dose: 50.0 mg/kg/injection, schedule: Q01DX009 (ip), vehicle: water) was 160 % of control. The T/C (dose: 100.0 mg/kg/injection, schedule: Q01DX001 (ip), vehicle: water) was 196 % of control and the T/C (dose: 200.0 mg/kg/injection, schedule: Q01DX001 (ip), vehicle: water) was 232 % of control.

With COc1cccc2c1C(=O)c1c(O)c3c(c(O)c1C2=O)CC(O)(/C(C)=N/NC(=O)CCCCC(=O)N/N=C(\C)C1(O)Cc2c(O)c4c(c(O)c2C(OC2CC(N)C(O)C(C)O2)C1)C(=O)c1c(OC)cccc1C4=O)CC3OC1CC(N)C(O)C(C)O1 (configuration not stated) the T/C (dose: 1.56 mg/kg/injection, schedule: Q01DX009 (ip), vehicle: water) was 191 % of control, the T/C (dose: 3.12 mg/kg/injection, schedule: Q01DX009 (ip), vehicle: water) was 216 % of control and the T/C (dose: 6.25 mg/kg/injection, schedule: Q01DX009 (ip), vehicle: water) was 335 % of control.

CNC(=O)OCc1c(COC(=O)NC)c(-c2ccc(F)cc2)n2c1CCC2 was tested, and the T/C (dose: 0.78 mg/kg/injection, schedule: Q01DX009 (ip), vehicle: Klucel (hydroxypropylcellulose) (HPC)) was 114 % of control, the T/C (dose: 1.56 mg/kg/injection, schedule: Q01DX009 (ip), vehicle: Klucel (hydroxypropylcellulose) (HPC)) was 108 % of control and the T/C (dose: 3.12 mg/kg/injection, schedule: Q01DX009 (ip), vehicle: Klucel (hydroxypropylcellulose) (HPC)) was 122 % of control. For the same compound, the T/C [1] was 117 % of control.

For CCC(NC(N)=O)C(CC)NC(N)=O (configuration not stated), the T/C [2] was 99 % of control, the T/C [3] was 96 % of control and the T/C [4] was 89 % of control.

For COc1cccc2c1C(=O)c1c(O)c3c(c(O)c1C2=O)C[C@@](O)(C(C)=O)C[C@@H]3OC1CC(N2CCOCC2)C(O)C(C)O1 (some centres not stated), the T/C (dose: 0.06 mg/kg/injection, schedule: Q01DX001 (ip), vehicle: water) was 120 % of control, the T/C (dose: 0.12 mg/kg/injection, schedule: Q01DX001 (ip), vehicle: water) was 123 % of control and the T/C (dose: 62.5 micrograms/kg/injection, schedule: Q01DX001 (ip), vehicle: water) was 113 % of control. For the same compound, the T/C (dose: 125.0 micrograms/kg/injection, schedule: Q01DX001 (ip), vehicle: water) was 122 % of control.

In the case of NCc1ccc(O)c(O)c1, the T/C (dose: 28.13 mg/kg/injection, schedule: Q03HX024 (ip), vehicle: saline) is reported as 98 % of control, the T/C (dose: 56.25 mg/kg/injection, schedule: Q03HX024 (ip), vehicle: saline) is reported as 107 % of control and the T/C (dose: 75.0 mg/kg/injection, schedule: Q01DX009 (ip), vehicle: saline) is reported as 110 % of control. The T/C (dose: 225.0 mg/kg/injection, schedule: Q03HX024 (ip), vehicle: saline) was 124 % of control, the T/C (dose: 300.0 mg/kg/injection, schedule: Q01DX009 (ip), vehicle: saline) was 114 % of control and 117 % of control and the T/C [5] was 117 % of control and 118 % of control. For the same compound, the T/C (dose: 500.0 mg/kg/injection, schedule: Q01DX009 (ip), vehicle: saline) was 117 % of control and 91 % of control.

For CN(N=O)C(=O)NCCCCCNC(=O)N(C)N=O, the T/C [2] was 98 % of control, the T/C [3] was 100 % of control and the T/C [4] was 109 % of control. For the same compound, the T/C [6] was 110 % of control.

In the case of CO[C@@]12[C@@H]3N[C@@H]3CN1C1=C(C(=O)C(N3CCCC3)=C(C)C1=O)[C@@H]2COC(N)=O, the T/C (dose: 3.12 mg/kg/injection, schedule: Q01DX009 (ip), vehicle: saline with Tween-80) is reported as 327 % of control and the T/C [7] is reported as 100 % of control.

OCC1OC(n2cnc3c2NC=NC[C@H]3O)CC1O (some centres not stated) was tested, and the T/C (dose: 0.13 mg/kg/injection, schedule: Q01DX009 (ip), vehicle: saline) was 84 % of control, the T/C (dose: 0.25 mg/kg/injection, schedule: Q01DX009 (ip), vehicle: saline) was 78 % of control and the T/C (dose: 0.5 mg/kg/injection, schedule: Q01DX009 (ip), vehicle: saline) was 96 % of control.

With C=CCOc1cc2c(cc1C(C)c1ccc(OC)cc1)OCO2 (configuration not stated) the T/C [8] was 120 % of control, the T/C [9] was 124 % of control and 99 % of control and the T/C [10] was 108 % of control. The T/C [11] was 115 % of control.

With C(CC1CO1)C1CO1 (configuration not stated) the T/C (dose: 2.5 mg/kg/injection, schedule: Q01DX009 (ip), vehicle: Klucel (hydroxypropylcellulose) (HPC)) was 94 % of control, the T/C (dose: 5.0 mg/kg/injection, schedule: Q01DX009 (ip), vehicle: Klucel (hydroxypropylcellulose) (HPC)) was 101 % of control and the T/C (dose: 10.0 mg/kg/injection, schedule: Q01DX009 (ip), vehicle: Klucel (hydroxypropylcellulose) (HPC)) was 101 % of control. The T/C (dose: 20.0 mg/kg/injection, schedule: Q01DX009 (ip), vehicle: Klucel (hydroxypropylcellulose) (HPC)) was 111 % of control, the T/C (dose: 40.0 mg/kg/injection, schedule: Q01DX009 (ip), vehicle: Klucel (hydroxypropylcellulose) (HPC)) was 107 % of control and the T/C (dose: 80.0 mg/kg/injection, schedule: Q01DX009 (ip), vehicle: Klucel (hydroxypropylcellulose) (HPC)) was 98 % of control.

NNc1nncc2ccccc12 was tested, and the T/C [12] was 93 % of control, the T/C [13] was 98 % of control and the T/C [14] was 93 % of control.

For CC(NC(=O)C1CCCN1C(=O)CN)C(=O)O (configuration not stated), the T/C (dose: 100.0 mg/kg/injection, schedule: Q01DX009 (ip), vehicle: saline) was 105 % of control, the T/C (dose: 200.0 mg/kg/injection, schedule: Q01DX009 (ip), vehicle: saline) was 92 % of control and the T/C [5] was 96 % of control.

With C[C@]12CC[C@@H]3c4ccc(O)cc4CC[C@H]3[C@@H]1CC[C@@H]2O the T/C [1] was 89 % of control, the T/C (dose: 12.5 mg/kg/injection, schedule: Q01DX009 (ip), vehicle: Klucel (hydroxypropylcellulose) (HPC)) was 98 % of control and the T/C [8] was 90 % of control. For the same compound, the T/C [9] was 94 % of control, the T/C [10] was 90 % of control and the T/C [11] was 89 % of control.

With O=S1(=O)CCCO1 the T/C [12] was 95 % of control, the T/C [13] was 99 % of control and the T/C [14] was 94 % of control.

In the case of O=c1[nH]c(=O)n([C@H]2CCCO2)cc1F, the T/C (dose: 12.5 mg/kg/injection, schedule: Q01DX009 (ip), vehicle: suspension in saline) is reported as 98 % of control, the T/C (dose: 25.0 mg/kg/injection, schedule: Q01DX009 (ip), vehicle: suspension in saline) is reported as 100 % of control and the T/C (dose: 50.0 mg/kg/injection, schedule: Q01DX009 (ip), vehicle: suspension in saline) is reported as 112 % of control. For the same compound, the T/C (dose: 100.0 mg/kg/injection, schedule: Q01DX009 (ip), vehicle: suspension in saline) was 107 % of control and the T/C (dose: 200.0 mg/kg/injection, schedule: Q01DX009 (ip), vehicle: suspension in saline) was 120 % of control.

For COCC(CN1CCN(c2ccccc2OC)CC1)OC (configuration not stated), the T/C [12] was 100 % of control, the T/C [13] was 99 % of control and the T/C [14] was 105 % of control.

O=C(NC(Cc1cn(Cc2ccccc2)cn1)C(=O)O)OCC1c2ccccc2-c2ccccc21 (configuration not stated) was tested, and the T/C [10] was 111 % of control, the T/C [11] was 103 % of control and the T/C (dose: 400.0 mg/kg/injection, schedule: Q01DX009 (ip), vehicle: Klucel (hydroxypropylcellulose) (HPC)) was 115 % of control.

With CN1CCN(Cc2nc3cccc4c3c([n+]2[O-])-c2ccccc2-4)CC1 the T/C [2] was 98 % of control, the T/C [3] was 99 % of control and the T/C [4] was 110 % of control. The T/C [6] was 106 % of control and the T/C (dose: 200.0 mg/kg/injection, schedule: Q01DX009 (ip), vehicle: saline with Tween-80) was 120 % of control.

In the case of O=Cc1c(O)c2ccccc2[nH]c1=O, the T/C [7] is reported as 109 % of control and 107 % of control, the T/C [2] is reported as 108 % of control and 105 % of control and the T/C [3] is reported as 119 % of control.

In the case of CC(O)CCC(=O)c1ccoc1 (configuration not stated), the T/C (dose: 0.62 mg/kg/injection, schedule: Q03HX027 (ip), vehicle: saline) is reported as 97 % of control, the T/C (dose: 1.25 mg/kg/injection, schedule: Q03HX027 (ip), vehicle: saline) is reported as 113 % of control and the T/C (dose: 2.5 mg/kg/injection, schedule: Q03HX027 (ip), vehicle: saline) is reported as 105 % of control. For the same compound, the T/C (dose: 5.0 mg/kg/injection, schedule: Q01DX009 (ip), vehicle: saline) was 105 % of control, the T/C (dose: 5.0 mg/kg/injection, schedule: Q03HX027 (ip), vehicle: saline) was 114 % of control and the T/C (dose: 10.0 mg/kg/injection, schedule: Q01DX009 (ip), vehicle: saline) was 93 % of control. For the same compound, the T/C (dose: 10.0 mg/kg/injection, schedule: Q03HX027 (ip), vehicle: saline) was 105 % of control and the T/C (dose: 20.0 mg/kg/injection, schedule: Q01DX009 (ip), vehicle: saline) was 98 % of control.

For CC(C)C(NC(=O)OCC1c2ccccc2-c2ccccc21)C(=O)O (configuration not stated), the T/C [10] was 91 % of control and the T/C [11] was 91 % of control.

For O=C(N/N=C/c1c(O)ccc2ccccc12)C(=O)N/N=C/c1c(O)ccc2ccccc12, the T/C [2] was 110 % of control and 94 % of control and 107 % of control, the T/C [3] was 111 % of control and 112 % of control and 118 % of control and the T/C [6] was 94 % of control.
